Test results reported in patent US8461206B2, “Use of at least one (dihydro)jasmonic acid derivative for treating dry skin” (L'Oreal, priority 2003, dated 2013).

Key:
Format in all cases: cell-based
[1] = tested on: immortalized human sebocytes derived from the SZ95 line; test: cell viability (LDH) assay; settings: in parallel to the lipogenesis test
[2] = tested on: immortalized human sebocytes derived from the SZ95 line; test: cell proliferation (MUH) assay; settings: in parallel to the lipogenesis test
[3] = tested on: immortalized human sebocytes derived from the SZ95 line; test: lipogenesis in immortalized human sebocytes in culture (Nile Red fluorescence); settings: 10^-4 M, 0.1% DMSO, treatment for 48 hours, Nile Red 1 μg/ml, cells at confluence, p<0.001
Method: Methyl dihydrojasmonate (provided by BEDOUKIAN) was tested on a model of immortalized human sebocytes in culture, derived from the SZ95 line described in Zouboulis, C. C., Seltmann, H., Neitzel, H. & Orfanos, C. E., Establishment and Characterization of an Immortalized Human Sebaceous Gland Cell Line, J. Invest. Dermatol., 113, 1011-1020 (1999).
The test consisted in measuring the amount of lipids produced by the sebocytes of the line (at confluence), in the presence or absence of active agent diluted in DMSO, such that the final amount of DMSO in the culture medium was 0.1% and the amount of methyl dihydrojasmonate was 10^−4 M. After treatment for 48 hours, the adherent cells were treated with Nile Red (1 μg/ml). The lipid content was then quantified by measuring the fluorescence of the dye (two excitation/emission couples: 485-540 nm for the neutral lipids and 540-620 nm for the normeutral lipids). The results were given for the total lipids (combination of the two measurements).
The experiment was carried out in sextuplicate (assayed products and control) in a 96-well plate, and repeated four times.

CCCCCC1C(=O)CCC1CC(=O)OC (stereo not drawn) [methyl dihydrojasmonate]
modification of cell viability (LDH) [1]: not related to a modification
modification of cell proliferation (MUH) [2]: not related to a modification
increase in amount of neutral lipids synthesized by the sebocytes compared to the untreated control [3]: 98%
